Assay results published in ChEMBL document CHEMBL4308841, “Synthesis, in vitro antiproliferative activity, and kinase inhibitory effects of pyrazole-containing diarylureas and diarylamides” (Eur J Med Chem, 2018).

Experiments:
MDA-MB-435 = assay: Growth inhibition of human MDA-MB-435 cells assessed as cell growth at 0.1 uM incubated for 48 hrs by sulforhodamine B assay relative to control; format: functional; conditions: MDA-MB-435, 48 h, read-out: Activity
LOX IMVI = assay: Growth inhibition of human LOXIMVI cells incubated for 48 hrs by sulforhodamine B assay; format: functional
RXF 393 = assay: Growth inhibition of human RXF393 cells assessed as cell growth at 10 uM incubated for 48 hrs by sulforhodamine B assay relative to control; format: functional; conditions: RXF 393, 48 h, read-out: Activity
COLO 205 = assay: Growth inhibition of human COLO205 cells assessed as cell growth at 10 uM incubated for 48 hrs by sulforhodamine B assay relative to control; format: functional; conditions: COLO 205, 48 h, read-out: Activity
786-0 = assay: Growth inhibition of human 786-0 cells assessed as cell growth at 10 uM incubated for 48 hrs by sulforhodamine B assay relative to control; format: functional; conditions: 786-0, 48 h, read-out: Activity
MCF7 = assay: Growth inhibition of human MCF7 cells assessed as cell growth at 10 uM incubated for 48 hrs by sulforhodamine B assay relative to control; format: functional; conditions: MCF7, 48 h, read-out: Activity
NCI-H23 = assay: Growth inhibition of human NCI-H23 cells assessed as cell growth at 10 uM incubated for 48 hrs by sulforhodamine B assay relative to control; format: functional; conditions: NCI-H23, 48 h, read-out: Activity
Hs-578T [1] = assay: Growth inhibition of human Hs578T cells assessed as cell growth at 10 uM incubated for 48 hrs by sulforhodamine B assay relative to control; format: functional; conditions: read-out: Activity
NCI/ADR-RES = assay: Growth inhibition of human NCI/ADR-RES cells assessed as cell growth at 10 uM incubated for 48 hrs by sulforhodamine B assay relative to control; format: functional; conditions: read-out: Activity
BT-549 = assay: Growth inhibition of human BT549 cells assessed as cell growth at 10 uM incubated for 48 hrs by sulforhodamine B assay relative to control; format: functional; conditions: BT-549, 48 h, read-out: Activity
Malme-3M = assay: Growth inhibition of human MALME-3M cells assessed as cell growth at 10 uM incubated for 48 hrs by sulforhodamine B assay relative to control; format: functional; conditions: read-out: Activity
DU-145 = assay: Growth inhibition of human DU145 cells assessed as cell growth at 100 uM incubated for 48 hrs by sulforhodamine B assay relative to control; format: functional; conditions: DU-145, 48 h, read-out: Activity
SNB-19 [2] = assay: Growth inhibition of human SNB19 cells assessed as cell growth at 1 uM incubated for 48 hrs by sulforhodamine B assay relative to control; format: functional; conditions: SNB-19, 48 h, read-out: Activity
SW-620 = assay: Growth inhibition of human SW620 cells assessed as cell growth at 10 uM incubated for 48 hrs by sulforhodamine B assay relative to control; format: functional; conditions: SW-620, 48 h, read-out: Activity
SF-539 [3] = assay: Growth inhibition of human SF539 cells assessed as cell growth at 0.01 uM incubated for 48 hrs by sulforhodamine B assay relative to control; format: functional; conditions: SF-539, 48 h, read-out: Activity
HOP-62 = assay: Growth inhibition of human HOP62 cells incubated for 48 hrs by sulforhodamine B assay; format: functional, cell-based; conditions: HOP-62, 48 h
RPMI-8226 = assay: Growth inhibition of human RPMI8226 cells incubated for 48 hrs by sulforhodamine B assay; format: functional, cell-based; conditions: RPMI-8226, 48 h
SNB-19 [4] = assay: Growth inhibition of human SNB19 cells assessed as cell growth at 10 uM incubated for 48 hrs by sulforhodamine B assay relative to control; format: functional; conditions: SNB-19, 48 h, read-out: Activity
Hs-578T [5] = assay: Growth inhibition of human Hs578T cells assessed as cell growth at 100 uM incubated for 48 hrs by sulforhodamine B assay relative to control; format: functional; conditions: read-out: Activity
SF-539 [6] = assay: Growth inhibition of human SF539 cells assessed as cell growth at 1 uM incubated for 48 hrs by sulforhodamine B assay relative to control; format: functional; conditions: SF-539, 48 h, read-out: Activity
SN12C = assay: Growth inhibition of human SN12C cells assessed as cell growth at 10 uM incubated for 48 hrs by sulforhodamine B assay relative to control; format: functional; conditions: read-out: Activity
PC-3 = assay: Growth inhibition of human PC3 cells assessed as cell growth at 10 uM incubated for 48 hrs by sulforhodamine B assay relative to control; format: functional; conditions: PC-3, 48 h, read-out: Activity
A498 = assay: Growth inhibition of human A498 cells assessed as cell growth at 10 uM incubated for 48 hrs by sulforhodamine B assay relative to control; format: functional; conditions: A498, 48 h, read-out: Activity
SF-268 = assay: Growth inhibition of human SF268 cells assessed as cell growth at 10 uM incubated for 48 hrs by sulforhodamine B assay relative to control; format: functional; conditions: SF-268, 48 h, read-out: Activity
SK-MEL-28 = assay: Growth inhibition of human SK-MEL-28 cells assessed as cell growth at 10 uM incubated for 48 hrs by sulforhodamine B assay relative to control; format: functional; conditions: SK-MEL-28, 48 h, read-out: Activity
M14 = assay: Growth inhibition of human M14 cells assessed as cell growth at 10 uM incubated for 48 hrs by sulforhodamine B assay relative to control; format: functional; conditions: M14, 48 h, read-out: Activity
A549 = assay: Growth inhibition of human A549/ATCC cells assessed as cell growth at 10 uM incubated for 48 hrs by sulforhodamine B assay relative to control; format: functional; conditions: A549, 48 h, read-out: Activity
HL-60(TB) = assay: Growth inhibition of human HL-60(TB) cells assessed as cell growth at 10 uM incubated for 48 hrs by sulforhodamine B assay relative to control; format: functional; conditions: HL-60, 48 h, read-out: Activity
KM12 = assay: Growth inhibition of human KM12 cells assessed as cell growth at 10 uM incubated for 48 hrs by sulforhodamine B assay relative to control; format: functional; conditions: KM12, 48 h, read-out: Activity
OVCAR-3 = assay: Growth inhibition of human OVCAR3 cells assessed as cell growth at 10 uM incubated for 48 hrs by sulforhodamine B assay relative to control; format: functional; conditions: OVCAR-3, 48 h, read-out: Activity
ACHN = assay: Growth inhibition of human ACHN cells assessed as cell growth at 10 uM incubated for 48 hrs by sulforhodamine B assay relative to control; format: functional; conditions: read-out: Activity
U-251 = assay: Growth inhibition of human U251 cells assessed as cell growth at 0.1 uM incubated for 48 hrs by sulforhodamine B assay relative to control; format: functional; conditions: U-251, 48 h, read-out: Activity
[7] = read-out: LC50 (the source's name)
[8] = read-out: pLC50 (the source's name) (converted)

Compound: O=C(Nc1cccc(-n2cc(-c3ccncc3)c(-c3cc(O)cc(Cl)c3)n2)c1)Nc1ccc(Cl)c(C(F)(F)F)c1
- growth at 0.1 µM (MDA-MB-435): 94%
- GI50 (LOX IMVI; read-out: GI50): 1.97 µM
- CC50 (LOX IMVI; [7]): 95.5 µM
- TGI (LOX IMVI; read-out: TGI): 43.6 µM
- GI50 (LOX IMVI; read-out: pGI50 (converted)): 1.95 µM
- CC50 (LOX IMVI; [8]): 9.55 µM
- TGI (LOX IMVI; read-out: pTGI (converted)): 4.37 µM
- growth at 10 µM (RXF 393): -49.5%
- growth at 10 µM (COLO 205): 63.4%
- growth at 10 µM (786-0): -29.8%
- growth at 10 µM (MCF7): 13.4%
- growth at 10 µM (NCI-H23): 10.5%
- growth at 10 µM (Hs-578T [1]): 21.7%
- growth at 10 µM (NCI/ADR-RES): 41.5%
- growth at 10 µM (BT-549): 47.6%
- growth at 10 µM (Malme-3M): -24.9%
- growth at 100 µM (DU-145): -68%
- growth at 1 µM (SNB-19 [2]): 104%
- growth at 10 µM (SW-620): -33.6%
- growth at 0.01 µM (SF-539 [3]): 104%
- GI50 (HOP-62; read-out: GI50): 3.06 µM
- CC50 (HOP-62; [7]): > 100 µM
- TGI (HOP-62; read-out: TGI): 13.4 µM
- GI50 (HOP-62; read-out: pGI50 (converted)): 3.09 µM
- CC50 (HOP-62; [8]): > 100 µM
- TGI (HOP-62; read-out: pTGI (converted)): 13.5 µM
- IC50 (RPMI-8226): 1.95 µM
- GI50 (RPMI-8226; read-out: GI50): 1.96 µM
- CC50 (RPMI-8226; [7]): > 100 µM
- TGI (RPMI-8226; read-out: TGI): 50 µM
- GI50 (RPMI-8226; read-out: pGI50 (converted)): 1.95 µM
- CC50 (RPMI-8226; [8]): > 100 µM
- TGI (RPMI-8226; read-out: pTGI (converted)): 5.13 µM
- growth at 10 µM (SNB-19 [4]): 44.5%
- growth at 100 µM (Hs-578T [5]): 1%
- growth at 1 µM (SF-539 [6]): 91%
- growth at 10 µM (SN12C): 34.6%
- growth at 10 µM (PC-3): 5.34%
- growth at 10 µM (A498): 21.5%
- growth at 10 µM (SF-268): 42.1%
- growth at 10 µM (SK-MEL-28): -13.5%
- growth at 10 µM (M14): -16.8%
- growth at 10 µM (A549): 8.81%
- growth at 10 µM (HL-60(TB)): -26.9%
- growth at 10 µM (KM12): 15.1%
- growth at 10 µM (OVCAR-3): 1.88%
- growth at 10 µM (ACHN): 21.3%
- growth at 0.1 µM (U-251): 91%

Compound: O=C(Nc1cccc(-n2cc(-c3ccncc3)c(-c3cc(O)cc(Cl)c3)n2)c1)Nc1ccc(Cl)c(Cl)c1
- growth at 0.1 µM (MDA-MB-435): 93%
- GI50 (LOX IMVI; read-out: GI50): 1.56 µM
- TGI (LOX IMVI; read-out: TGI): 41 µM
- GI50 (LOX IMVI; read-out: pGI50 (converted)): 1.86 µM
- TGI (LOX IMVI; read-out: pTGI (converted)): 4.17 µM
- growth at 10 µM (RXF 393): -70.3%
- growth at 10 µM (COLO 205): 22.4%
- growth at 10 µM (786-0): -72.1%
- growth at 10 µM (MCF7): 2.74%
- growth at 10 µM (NCI-H23): -20.4%
- growth at 10 µM (Hs-578T [1]): -6.42%
- growth at 10 µM (NCI/ADR-RES): 12.8%
- growth at 10 µM (BT-549): 0.54%
- growth at 10 µM (Malme-3M): -35.1%
- growth at 100 µM (DU-145): -31%
- growth at 1 µM (SNB-19 [2]): 90%
- growth at 10 µM (SW-620): -33.8%
- growth at 0.01 µM (SF-539 [3]): 59%
- GI50 (HOP-62; read-out: GI50): 2.52 µM
- CC50 (HOP-62; [7]): > 100 µM
- TGI (HOP-62; read-out: TGI): 85.1 µM
- GI50 (HOP-62; read-out: pGI50 (converted)): 2.82 µM
- CC50 (HOP-62; [8]): > 100 µM
- TGI (HOP-62; read-out: pTGI (converted)): 8.51 µM
- IC50 (RPMI-8226): 1.44 µM
- GI50 (RPMI-8226; read-out: GI50): 1.44 µM
- CC50 (RPMI-8226; [7]): > 100 µM
- TGI (RPMI-8226; read-out: TGI): 43 µM
- GI50 (RPMI-8226; read-out: pGI50 (converted)): 1.45 µM
- CC50 (RPMI-8226; [8]): > 100 µM
- TGI (RPMI-8226; read-out: pTGI (converted)): 4.27 µM
- growth at 10 µM (SNB-19 [4]): 30.8%
- growth at 100 µM (Hs-578T [5]): 9%
- growth at 1 µM (SF-539 [6]): 72%
- growth at 10 µM (SN12C): 14.9%
- growth at 10 µM (PC-3): -1.66%
- growth at 10 µM (A498): -2.98%
- growth at 10 µM (SF-268): 16.2%
- growth at 10 µM (SK-MEL-28): -50.9%
- growth at 10 µM (M14): -69.2%
- growth at 10 µM (A549): 3.96%
- growth at 10 µM (HL-60(TB)): -23.4%
- growth at 10 µM (KM12): 2.26%
- growth at 10 µM (OVCAR-3): -47.4%
- growth at 10 µM (ACHN): 6.85%
- growth at 0.1 µM (U-251): 93%
